This is an account of results in patent US6342502B1, “Thieno[2,3-d]pyrimidine diones and their use in the treatment of reversible obstructive airways diseases” (AstraZeneca AB, priority 1997, dated 2002).

Usually melting point stands for the temperature, or range, at which the solid turns liquid.

In turn, `CC(C)Cn1c(=O)n(C)c(=O)c2cc(Cc3ccccc3)sc21` [Example 12, 6-Benzyl-3-methyl-1-(2-methylpropyl)thieno[2,3-d]pyrimidine-2,4(1H,3H)-dione] had a melting point of 72 to 73 °C. To `CC(C)Cn1c(=O)n(C)c(=O)c2c(Sc3ccc([N+](=O)[O-])cn3)c(Cc3cccc4ccccc34)sc21` [Example 37, 3-Methyl-1-(2-methylpropyl)-6-(1-naphthalenylmethyl)-5-[(5-nitropyridin-2-yl)thio]thieno[2,3-d]pyrimidine-2,4-(1H, 3H)-dione] belongs 200 to 201 °C; to `CC(C)Cn1c(=O)n(C)c(=O)c2c(C(=O)NCCO)c(Cc3cccc4ccccc34)sc21` [Example 16, 1,2,3,4-Tetrahydro-N-(2-hydroxyethyl)-3-methyl-1-(2-methylpropyl)-6-(1-naphthalenylmethyl)-2,4-dioxothieno[2,3-d]pyrimidine-5-carboxamide], 193 to 194 °C; to `CC(C)Cn1c(=O)n(C)c(=O)c2c(Sc3cccc(O)c3)c(Cc3cccc4ccccc34)sc21` [Example 27, 5-[(3-Hydroxyphenyl)thio]-3-methyl-1-(2-methylpropyl)-6-(1-naphthalenylmethyl)thieno[2,3-d]pyrimidine-2,4-(1H,3H)-dione], 200 to 201 °C. With `CC(C)Cn1c(=O)n(C)c(=O)c2cc(Cc3ccc(N)cc3)sc21` [Example 92, 6-(4-Aminophenylmethyl)-3-methyl-1-(2-methylpropyl)thieno[2,3-d]pyrimidine-2,4-(1H, 3H)-dione] the figure was 104 °C. For the molecule `CC(C)Cn1c(=O)n(C)c(=O)c2c(NC(=O)N(C)CCO)c(Cc3cccc4ccccc34)sc21` [Example 50], the melting point was 151 to 152 °C.

In the case of `CC(C)Cn1c(=O)n(C)c(=O)c2c(Sc3ccc(N)cn3)c(Cc3cccc4ccccc34)sc21` [Example 87, 5-[(5-Amino-2-pyridinyl)thio]-3-methyl-1-(2-methylpropyl)-6-(1-naphthalenylmethyl)thieno[2,3-d]pyrimidine-2,4(1H,3H)-dione], the melting point was 208 to 209 °C. With `C=C(C)Cn1c(=O)n(C)c(=O)c2cc(Cc3ccc(OC)cc3)sc21` [Example 2, 6-(4-Methoxyphenylmethyl)-3-methyl-1-(2-methyl-2-propenyl)thieno[2,3-d]pyrimidine-2,4(1H,3H)-dione] the figure was 111 °C; with `CC(C)Cn1c(=O)n(C)c(=O)c2c(SCCCO)c(Cc3cccc(F)c3)sc21` [Example 86], 99 to 100 °C; with `CC(C)Cn1c(=O)n(C)c(=O)c2c(SCCCO)c(C(O)c3cccc4ccccc34)sc21` (racemic) [Example 83, (±) 6-(1-Hydroxy-1-[1-naphthalenyl]methyl)-5-([3-hydroxypropyl]thio)-3-methyl-1-(2-methylpropyl)thieno[2,3-d]pyrimidine-2,4(1H,3H)-dione], 100 to 105 °C.

Regarding `COC(=O)CCCSc1c(Cc2cccc3ccccc23)sc2c1c(=O)n(C)c(=O)n2CC(C)C` [Example 7, Methyl 4-[(1,2,3,4-tetrahydro-3-methyl-1-(2-methylpropyl)-6-(1-naphthalenylmethyl)-2,4-dioxothieno[2,3-d]pyrimidin-5-y)thio]butanoate], the melting point was in the range of 111 to 112 °C. To `CC(C)Cn1c(=O)n(C)c(=O)c2cc(C(O)c3ccc([N+](=O)[O-])cc3)sc21` (stereo not drawn) [Example 90, 6-[1-Hydroxy-(4-nitrophenyl)methyl]-3-methyl-1-(2-methylpropyl)thieno[2,3-d]pyrimidin-2,4(1H,3H)-dione] belongs 127 °C. `CC(=O)Nc1cccc(Sc2c(Cc3cccc4ccccc34)sc3c2c(=O)n(C)c(=O)n3CC(C)C)c1` [Example 34, 5-[(3-Acetamidophenyl)thio]-3-methyl-1-(2-methylpropyl)-6-(1-naphthalenylmethyl)thieno[2,3-d]pyrimidine-2,4-(1H, 3H)-dione] had a melting point of 173 to 174 °C. With `CC(C)Cn1c(=O)n(C)c(=O)c2c(Sc3ccccn3)c(Cc3cccc4ccccc34)sc21` [Example 5, 3-Methyl-1-(2-methylpropyl)-6-(1-naphthalenylmethyl)-5-[(2-pyridinyl)thio]thieno[2,3-d]pyrimidine-2,4(1H,3H)-dione] the figure was 148 to 149 °C; with `CC(C)Cn1c(=O)n(C)c(=O)c2c(Sc3cccc[n+]3[O-])c(Cc3cccc4ccccc34)sc21` [Example 38, 2-{[1,2,3,4-Tetrahydro-3-methyl-1-(2-methylpropyl)-6-(1-naphthalenylmethyl)-2,4-dioxothieno[2,3-d]pyrimidin-5-yl]thio}pyridine N-oxide], 228 to 229 °C. `CC(C)Cn1c(=O)n(C)c(=O)c2c(S(=O)(=O)CCCC(=O)O)c(Cc3cccc4ccccc34)sc21` [Example 11, 4-[(1,2,3,4-Tetrahydro-3-methyl-1-(2-methylpropyl)-6-(1-naphthalenylmethyl)-2,4-dioxothieno[2,3-d]pyrimidin-5-yl)sulfonyl]butanoic acid] displayed a melting point of 174 to 181 °C. To `CC(C)Cn1c(=O)n(C)c(=O)c2c(S(=O)(=O)c3cccc(O)c3)c(Cc3cccc4ccccc34)sc21` [Example 29] belongs 209 to 210 °C; to `CC(=O)Nc1cccc(C(=O)Nc2ccc(Cc3cc4c(=O)n(C)c(=O)n(CC(C)C)c4s3)cc2)c1` [Example 94], 230 °C; to `CC(C)Cn1c(=O)[nH]c(=O)c2cc(Cc3cccc4ccccc34)sc21` [Example 3, 1-(2-Methylpropyl)-6-(1-naphthalenylmethyl)thieno[2,3-d]pyrimidine-2,4(1H,3H)-dione], 189 to 190 °C. `CC(C)Cn1c(=O)n(C)c(=O)c2c(Sc3cccc(N)c3)c(Cc3cccc4ccccc34)sc21` [Example 31, 5-[(3-Aminophenyl)thio]-3-methyl-1-(2-methylpropyl)-6-(1-naphthalenylmethyl)-thieno[2,3-d]pyrimidine-2,4-(1H, 3H)-dione] came in with a melting point of 149 to 150 °C. With `CC(C)Cn1c(=O)n(C)c(=O)c2cc(C(O)c3ccccc3)sc21` (stereo not drawn) [Example 14, 6-[(1-Hydroxy-1-phenyl)methyl]-3-methyl-1-(2-methylpropyl)thieno[2,3-d]pyrimidine-2,4(1H,3H)-dione], the melting point lay within 140 to 142 °C. With `CC(C)Cn1c(=O)n(C)c(=O)c2c(Sc3cccc(N(S(C)(=O)=O)S(C)(=O)=O)c3)c(Cc3cccc4ccccc34)sc21` [Example 32, 5-{[3-{(Bis-methanesulfonyl)amino}phenyl]thio}-3-methyl-1-(2-methylpropyl)-6-(1-naphthalenylmethy)theino[2,3d]pyrimidine-2,4(1H, 3H)-dione] the figure was 216 to 217 °C; with `COC(=O)Nc1cccc(Sc2c(Cc3cccc4ccccc34)sc3c2c(=O)n(C)c(=O)n3CC(C)C)c1` [Example 33], 167 to 168 °C; with `CC(C)Cn1c(=O)n(C)c(=O)c2c(C(=O)N(C)C)c(Cc3ccccc3)sc21` [Example 89, 1,2,3,4-Tetrahydro-3,N,N-trimethyl-1-(2-methylpropyl)-6-phenylmethy-2,4-dioxothieno[2,3-d]pyrimidine-5-carboxamide], 144 to 146 °C. `CC(C)n1c(=O)n(C)c(=O)c2cc(Cc3ccccc3)sc21` [Example 13, 3-Methyl-1-(1-methylethyl)-6-(phenylmethyl)thieno[2,3-d]pyrimidine-2,4(1H,3H)-dione] had a melting point of 91 to 93 °C. To `CC(C)Cn1c(=O)n(C)c(=O)c2c(Sc3ccc(N)cc3)c(Cc3cccc4ccccc34)sc21` [Example 36, 5-[(4-Aminophenyl)thio]-3-methyl-1-(2-methylpropyl)-6-(1-naphthalenylmethyl)thieno[2,3-d]pyrimidine-2,4-(1H, 3H)-dione] belongs 177 to 178 °C; to `CC(=O)NCCCSc1c(Cc2cccc3ccccc23)sc2c1c(=O)n(C)c(=O)n2CC(C)C` [Example 41], 114 to 117 °C.
